Assay results from patent publication US20260022143A1, “Cyclic Peptide Inhibitors of IL-23” (JANSSEN PHARMACEUTICA NV, priority 2022, published 2026).
Starred links: 1 amine or outer side, 2 acyl side, 3 side chain; linkers in the order of their positions; H or OH if unused. Positions of bridges follow the written chain, without caps; N, C: chain ends. Non-standard residues stand in square brackets, D forms with d. Residues, ends and D or L forms follow the SMILES beside them. Groups on a side chain read outwards from the residue. *: point of attachment. Me3N+(CH2)2O(CH2)2O(CH2)2CO = C[N+](C)(C)CCOCCOCCC(=O)*; CH2CH2OCH2CH2OCH2CH2NMe3+ = C[N+](C)(C)CCOCCOCC*; Trp(7-Me) = Cc1cccc2c(C[C@H](N)C(=O)O)c[nH]c12; X20 = C[N+](C)(C)CC[C@H](N[*:1])C(=O)[*:2]; X15 = CC(=O)N(C)C[C@H](N[*:1])C(=O)[*:2]; γGlu = O=C(O)[C@H](CCC(=O)[*:2])N[*:1]; 2Nal = N[C@@H](Cc1ccc2ccccc2c1)C(=O)O; 3Pal = N[C@@H](Cc1cccnc1)C(=O)O; Lys(Me) = CNCCCC[C@H](N)C(=O)O; Agb = N=C(N)NCC[C@H](N)C(=O)O; NMeK = CN[C@@H](CCCCN)C(=O)O; Pen = CC(C)(S)[C@H](N)C(=O)O; Lauroyl = CCCCCCCCCCCC(=O)*; X11 = N=C(N)NCCOCCOCCC(=O)*; Thp = NC1(C(=O)O)CCOCC1; X3 = C[N+](C)(C)CCCCC*; AEEA = NCCOCCOCC(=O)O; Sar = CNCC(=O)O

Assays:
[1] = Exposed Polar Surface Area (EPSA); format: physicochemical; settings: SFC on Chirex 3014 column; sample 1 mM DMSO stock; read-out: EPSA
How it was run: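 Polarity descriptor in Å² derived from retention time using 8 calibration standards re-run every 20 compounds. Duplicate injections of 1 mM DMSO stock; linear 5–60% modifier gradient (20 mM ammonium formate in MeOH) with CO2 at 4 mL/min, 35 °C, on a Chirex 3014 column.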

IL-23R = biological target: T1, IL-23R (Homo sapiens, UniProt Q5VWK5); experiment: IL23R Reporter Assay; format: cell-based; settings: HEK293 cells containing IL-23R, IL-12RP1 and STAT-inducible firefly luciferase reporter; 10 ng/mL IL-23 (EC90); 5 h at 37° C.; read-out: IL23R Reporter Assay
T1 construct: host or cells: HEK293
T1 sequence (Q5VWK5 24-629): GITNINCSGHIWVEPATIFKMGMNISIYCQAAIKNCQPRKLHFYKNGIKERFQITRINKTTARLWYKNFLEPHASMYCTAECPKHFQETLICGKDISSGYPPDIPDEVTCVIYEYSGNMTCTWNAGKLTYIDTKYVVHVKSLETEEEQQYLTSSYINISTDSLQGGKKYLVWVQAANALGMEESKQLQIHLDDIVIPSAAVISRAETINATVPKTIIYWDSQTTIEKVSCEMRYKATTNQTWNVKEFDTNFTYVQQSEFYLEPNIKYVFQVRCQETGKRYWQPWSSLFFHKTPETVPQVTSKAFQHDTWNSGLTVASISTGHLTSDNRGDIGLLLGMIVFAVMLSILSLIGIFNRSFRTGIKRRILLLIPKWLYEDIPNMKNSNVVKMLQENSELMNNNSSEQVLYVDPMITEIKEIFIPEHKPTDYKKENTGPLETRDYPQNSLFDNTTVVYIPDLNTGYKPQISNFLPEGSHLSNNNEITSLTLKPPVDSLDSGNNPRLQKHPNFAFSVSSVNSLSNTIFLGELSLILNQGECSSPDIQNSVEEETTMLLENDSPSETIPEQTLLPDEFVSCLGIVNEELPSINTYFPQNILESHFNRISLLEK

| SMILES | EPSA [1] | IC50 (IL-23R) |
| --- | --- | --- |
| CCCCCCCCCCCC(=O)N[C@@H](CCC(=O)NCCOCCOCC(=O)NCCOCCOCC(=O)NCCCC[C@@H]1NC(=O)[C@H](Cc2c[nH]c3c(C)cccc23)NC(=O)[C@H]([C@@H](C)O)NC(=O)[C@H](CC(=O)N(C)C)NC(=O)[C@@H](NC(=O)CCOCCOCC[N+](C)(C)C)C(C)(C)SSC(C)(C)[C@@H](C(=O)N[C@@H](Cc2ccc(OCCCCC[N+](C)(C)C)cc2)C(=O)N[C@@H](Cc2ccc3ccccc3c2)C(=O)NC2(C(=O)N[C@@H](CCCCNC(=O)COCCOCCNC(=O)COCCOCCNC(=O)CC[C@H](NC(=O)CCCCCCCCCCC)C(=O)O)C(=O)N[C@@H](CC(N)=O)C(=O)N[C@@H](Cc3cccnc3)C(=O)N(C)CC(=O)N(C)C)CCOCC2)NC1=O)C(=O)O [compound 400, cPEG3aCO-Pen(3)-N(N(Me)2)-T-7MeW-K(PEG2PEG2gEC12)-Pen(3)-TMAPF-2Nal-THP-K(PEG2PEG2gEC12)-N-3Pya-Sar-CON(Me)2] ({Me3N+(CH2)2O(CH2)2O(CH2)2CO}-[Pen]D(NMe2)T[Trp(7-Me)]K([AEEA-AEEA-γGlu-Lauroyl])[Pen]Y(X3)[2Nal][Thp]K([AEEA-AEEA-γGlu-Lauroyl])N[3Pal][Sar]-NMe2; disulfide 1-6) | 173 A^2 | 290 nM |
| CCCCCCCCCCCC(=O)N[C@@H](CCC(=O)NCCOCCOCC(=O)NCCOCCOCC(=O)NCCCC[C@H](NC(=O)C1(NC(=O)[C@H](Cc2ccc3ccccc3c2)NC(=O)[C@H](Cc2ccc(OCCCCC[N+](C)(C)C)cc2)NC(=O)[C@H]2NC(=O)[C@H](CCCCN(C)C(C)=O)NC(=O)[C@H](Cc3c[nH]c4c(C)cccc34)NC(=O)[C@H]([C@@H](C)O)NC(=O)[C@H](CC(=O)N(C)C)NC(=O)[C@@H](NC(=O)CCOCCOCC[N+](C)(C)C)C(C)(C)SSC2(C)C)CCOCC1)C(=O)N[C@@H](CC(N)=O)C(=O)N[C@@H](Cc1cccnc1)C(=O)N(C)CC(=O)N(C)C)C(=O)O [compound 401, cPEG3aCO-Pen(3)-N(N(Me)2)-T-7MeW-K(NMeAc)-Pen(3)-TMAPF-2Nal-THP-K(PEG2PEG2gEC12)-N-3Pya-Sar-CON(Me)2] ({Me3N+(CH2)2O(CH2)2O(CH2)2CO}-[Pen]D(NMe2)T[Trp(7-Me)][Lys(Me)](Ac)[Pen]Y(X3)[2Nal][Thp]K([AEEA-AEEA-γGlu-Lauroyl])N[3Pal][Sar]-NMe2; disulfide 1-6) | 155 A^2 | 5.9 nM |
| CCCCCCCCCCCC(=O)N[C@@H](CCC(=O)NCCOCCOCC(=O)NCCOCCOCC(=O)NCCOCCOCC(=O)NCCOCCOCC(=O)NCCCC[C@@H](NC(=O)CCOCCOCC[N+](C)(C)C)C(=O)N[C@@H]1C(=O)N[C@@H](CC(=O)N(C)C)C(=O)N[C@@H]([C@@H](C)O)C(=O)N[C@@H](Cc2c[nH]c3c(C)cccc23)C(=O)N[C@@H](CCCCNC(C)=O)C(=O)N[C@H](C(=O)N[C@@H](Cc2ccc(OCCCCC[N+](C)(C)C)cc2)C(=O)N[C@@H](Cc2ccc3ccccc3c2)C(=O)NC2(C(=O)N[C@@H](CCCCN(C)C(C)=O)C(=O)N[C@@H](CC(N)=O)C(=O)N[C@@H](Cc3cccnc3)C(=O)N(C)[C@@H](CCCCNC(=O)COCCOCCNC(=O)COCCOCCNC(=O)COCCOCCNC(=O)COCCOCCNC(=O)CC[C@H](NC(=O)CCCCCCCCCCC)C(=O)O)C(N)=O)CCOCC2)C(C)(C)SSC1(C)C)C(=O)O [compound 404, cPEG3aCO-k(PEG2PEG2PEG2PEG2gEC12)-Pen(3)-N(N(Me)2)-T-7MeW-K(Ac)-Pen(3)-TMAPF-2Nal-THP-K(NMeac)-N-3Pya-NMeK(PEG2PEG2PEG2PEG2gEC12)-CONH2] ({Me3N+(CH2)2O(CH2)2O(CH2)2CO}-[dK]([AEEA-AEEA-AEEA-AEEA-γGlu-Lauroyl])[Pen]D(NMe2)T[Trp(7-Me)]K(Ac)[Pen]Y(X3)[2Nal][Thp][Lys(Me)](Ac)N[3Pal][NMeK]([AEEA-AEEA-AEEA-AEEA-γGlu-Lauroyl])-NH2; disulfide 2-7) | 196 A^2 | 31 nM |
| CC(=O)N(C)CCCC[C@@H]1NC(=O)[C@H](Cc2c[nH]c3c(C)cccc23)NC(=O)[C@H]([C@@H](C)O)NC(=O)[C@H](CC(=O)N(C)C)NC(=O)[C@@H](NC(=O)CCOCCOCCNC(=N)N)C(C)(C)SSC(C)(C)[C@@H](C(=O)N[C@@H](Cc2ccc(OCCOCCOCC[N+](C)(C)C)cc2)C(=O)N[C@@H](Cc2ccc3ccccc3c2)C(=O)NC2(C(=O)N[C@@H](CCCCN(C)C(C)=O)C(=O)N[C@@H](CC(N)=O)C(=O)N[C@@H](Cc3cccnc3)C(=O)N(C)CC(=O)N(C)C)CCOCC2)NC1=O [compound 406, cPEG3gCO-Pen(3)-N(N(Me)2)-T-7MeW-K(NMeAc)-Pen(3)-APEG3F-2Nal-THP-K(NMeAc)-N-3Pya-Sar-CON(Me)2] (X11-[Pen]D(NMe2)T[Trp(7-Me)][Lys(Me)](Ac)[Pen]Y(CH2CH2OCH2CH2OCH2CH2NMe3+)[2Nal][Thp][Lys(Me)](Ac)N[3Pal][Sar]-NMe2; disulfide 1-6) | 150 A^2 | 2.1 nM |
| CCCCCCCCCCCC(=O)N[C@@H](CCC(=O)NCCOCCOCC(=O)NCCOCCOCC(=O)NCCOCCOCC(=O)NCCOCCOCC(=O)NCCCC[C@H](NC(=O)COCCOCCNC(=O)COCCOCCNC(=O)COCCOCCNC(=O)COCCOCCNC(=O)CC[C@H](NC(=O)CCCCCCCCCCC)C(=O)O)C(=O)NCCOCCOCC(=O)NCCOCCOCC(=O)NCCCC[C@@H](C(N)=O)N(C)C(=O)[C@H](Cc1cccnc1)NC(=O)[C@H](CC(N)=O)NC(=O)[C@H](CCCCN(C)C(C)=O)NC(=O)C1(NC(=O)[C@H](Cc2ccc3ccccc3c2)NC(=O)[C@H](Cc2ccc(OCCCCC[N+](C)(C)C)cc2)NC(=O)[C@H]2NC(=O)[C@H](CCCCNC(C)=O)NC(=O)[C@H](Cc3c[nH]c4c(C)cccc34)NC(=O)[C@H]([C@@H](C)O)NC(=O)[C@H](CC(=O)N(C)C)NC(=O)[C@@H](NC(=O)CCOCCOCC[N+](C)(C)C)C(C)(C)SSC2(C)C)CCOCC1)C(=O)O [compound 409, cPEG3aCO-Pen(3)-N(N(Me)2)-T-7MeW-K(Ac)-Pen(3)-TMAPF-2Nal-THP-K(NMeac)-N-3Pya-NMeK(PEG2PEG2K(PEG2PEG2PEG2PEG2gEC12)2)-CONH2] | 198 A^2 | 47 nM |
| CC(=O)N(C)CCCC[C@@H]1NC(=O)[C@H](Cc2c[nH]c3c(C)cccc23)NC(=O)[C@H]([C@@H](C)O)NC(=O)[C@H](CCNC(=N)N)NC(=O)[C@@H](NC(=O)CCOCCOCC[N+](C)(C)C)C(C)(C)SSC(C)(C)[C@@H](C(=O)N[C@@H](Cc2ccc(OCCOCCOCC[N+](C)(C)C)cc2)C(=O)N[C@@H](Cc2ccc3ccccc3c2)C(=O)NC2(C(=O)N[C@@H](CCCCN(C)C(C)=O)C(=O)N[C@@H](CC(N)=O)C(=O)N[C@@H](Cc3cccnc3)C(=O)N(C)CC(=O)N(C)C)CCOCC2)NC1=O [compound 411, cPEG3aCO-Pen(3)-Gab-T-7MeW-K(NMeAc)-Pen(3)-APEG3F-2Nal-THP-K(NMeAc)-N-3Pya-Sar-CON(Me)2] ({Me3N+(CH2)2O(CH2)2O(CH2)2CO}-[Pen][Agb]T[Trp(7-Me)][Lys(Me)](Ac)[Pen]Y(CH2CH2OCH2CH2OCH2CH2NMe3+)[2Nal][Thp][Lys(Me)](Ac)N[3Pal][Sar]-NMe2; disulfide 1-6 (inferred)) | 155 A^2 | 2.1 nM |
| CC(=O)NCCCC[C@@H]1NC(=O)[C@H](Cc2c[nH]c3c(C)cccc23)NC(=O)[C@H]([C@@H](C)O)NC(=O)[C@H](CC(=O)N(C)C)NC(=O)[C@@H](NC(=O)CCOCCOCC[N+](C)(C)C)C(C)(C)SSC(C)(C)[C@@H](C(=O)N[C@@H](Cc2ccc(OCCCCC[N+](C)(C)C)cc2)C(=O)N[C@@H](Cc2ccc3ccccc3c2)C(=O)NC2(C(=O)N[C@@H](CN(C)C(C)=O)C(=O)N[C@@H](CC(N)=O)C(=O)N[C@@H](Cc3cccnc3)C(=O)N(C)CC(=O)N(C)C)CCOCC2)NC1=O [compound 415, cPEG3aCO-Pen(3)-N(N(Me)2)-T-7MeW-K(Ac)-Pen(3)-TMAPF-2Nal-THP-Dap(NMeAc)-N-3Pya-Sar-CON(Me)2] ({Me3N+(CH2)2O(CH2)2O(CH2)2CO}-[Pen]D(NMe2)T[Trp(7-Me)]K(Ac)[Pen]Y(X3)[2Nal][Thp][X15]N[3Pal][Sar]-NMe2; disulfide 1-6 (inferred)) | 148 A^2 | 4.4 nM |
| CC(=O)N(C)CCCC[C@@H]1NC(=O)[C@H](Cc2c[nH]c3c(C)cccc23)NC(=O)[C@H]([C@@H](C)O)NC(=O)[C@H](CC[N+](C)(C)C)NC(=O)[C@@H](NC(=O)CCOCCOCC[N+](C)(C)C)C(C)(C)SSC(C)(C)[C@@H](C(=O)N[C@@H](Cc2ccc(OCCOCCOCC[N+](C)(C)C)cc2)C(=O)N[C@@H](Cc2ccc3ccccc3c2)C(=O)NC2(C(=O)N[C@@H](CCCCN(C)C(C)=O)C(=O)N[C@@H](CC(N)=O)C(=O)N[C@@H](Cc3cccnc3)C(=O)N(C)CC(=O)N(C)C)CCOCC2)NC1=O [compound 416, cPEG3aCO-Pen(3)-Dab(Me)3-T-7MeW-K(NMeAc)-Pen(3)-APEG3F-2Nal-THP-K(NMeAc)-N-3Pya-Sar-CON(Me)2] ({Me3N+(CH2)2O(CH2)2O(CH2)2CO}-[Pen][X20]T[Trp(7-Me)][Lys(Me)](Ac)[Pen]Y(CH2CH2OCH2CH2OCH2CH2NMe3+)[2Nal][Thp][Lys(Me)](Ac)N[3Pal][Sar]-NMe2; disulfide 1-6) | 166 A^2 | 1.2 nM |
